# Assay: recombinant UMI read abundance after kanamycin selection (control-corrected) (log10(CPM+1)); higher = more efficient recombination; extreme values may be limits of the assay; sequences stand for … in AGTGCAGAGAAAATCGGCCAGTTTTCTCTGCCTGCAGTCCGCATGCCGTGGGACCCCTTGGGTTCTAACCTGTTGCCTAGATTTATGCAGCGGACTGCCTTTCTCCCAAAGTGATAAACCGG…AGGTTGGTTTCACT; site = the 11-nt donor
# In short: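 Under IPTG (0.07 mM) plus kanamycin, or without selection, Escherichia coli carrying a UMI-tagged donor and donor-binding-loop pair library and a target plasmid for the IS621 bridge recombinase were plated in two replicates. Recombinant UMIs were PCR-amplified across the donor–target junction and sequenced. Counts were converted to CPM, averaged over replicates, scaled by control-derived factors and reported as log10(CPM+1).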
# 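Note: IS621 bridge recombinase in Escherichia coli cells against a fixed T5 target plasmid.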
row,Sequence,recombinant UMI read abundance (log10)
1,CTCGGGCCATGGACCGGTTTTCCCGGTAATCCGTATTTGAG (site CTCGGGCCTCT),0
2,CTCGGTCCATGGACCGGTTTTCCCGGTAATCCGTATTTGCA (site CACGGTCCTTG),0.779
3,CTCGGTCCATGGACCGGTTTTCCCGGTAATCCGTATTTGCA (site CCCGGTCCTTG),1.6
4,CTCGGTCCATGGACCGGTTTTCCCGGTAATCCGTATTTGCA (site CGCGGTCCTTG),0.00731
5,CTCGGTCCATGGACCGGTTTTCCCGGTAATCCGTATTTGCA (site CTCGGTCCTTG),0.517
6,CTCGTCGCATGGACCGGTTTTCCCGGTAATCCGTATTTGGG (site CTCGTCGCTCC),0.0128
7,CTCTACACATGGACCGGTTTTCCCGGTAATCCGTATTTGCT (site ATCTACACTAG),0.294
8,CTCTACACATGGACCGGTTTTCCCGGTAATCCGTATTTGCT (site CACTACACTAG),1.63
9,CTCTACACATGGACCGGTTTTCCCGGTAATCCGTATTTGCT (site CCCTACACTAG),2.09
10,CTCTACACATGGACCGGTTTTCCCGGTAATCCGTATTTGCT (site CGCTACACTAG),0.891
11,CTCTACACATGGACCGGTTTTCCCGGTAATCCGTATTTGCT (site CTATACACTAG),0.775
12,CTCTACACATGGACCGGTTTTCCCGGTAATCCGTATTTGCT (site CTCAACACTAG),0
13,CTCTACACATGGACCGGTTTTCCCGGTAATCCGTATTTGCT (site CTCCACACTAG),2.02
14,CTCTACACATGGACCGGTTTTCCCGGTAATCCGTATTTGCT (site CTCGACACTAG),0.288
15,CTCTACACATGGACCGGTTTTCCCGGTAATCCGTATTTGCT (site CTCTAAACTAG),0
16,CTCTACACATGGACCGGTTTTCCCGGTAATCCGTATTTGCT (site CTCTACACTAA),0.362
17,CTCTACACATGGACCGGTTTTCCCGGTAATCCGTATTTGCT (site CTCTACACTAC),0.0172
18,CTCTACACATGGACCGGTTTTCCCGGTAATCCGTATTTGCT (site CTCTACACTAG),2.41
19,CTCTACACATGGACCGGTTTTCCCGGTAATCCGTATTTGCT (site CTCTACACTAT),0.916
20,CTCTACACATGGACCGGTTTTCCCGGTAATCCGTATTTGCT (site CTCTACACTCG),0.238
21,CTCTACACATGGACCGGTTTTCCCGGTAATCCGTATTTGCT (site CTCTACACTGG),1.37
22,CTCTACACATGGACCGGTTTTCCCGGTAATCCGTATTTGCT (site CTCTACACTTG),1.15
23,CTCTACACATGGACCGGTTTTCCCGGTAATCCGTATTTGCT (site CTCTACCCTAG),0
24,CTCTACACATGGACCGGTTTTCCCGGTAATCCGTATTTGCT (site CTCTACGCTAG),0.84
25,CTCTACACATGGACCGGTTTTCCCGGTAATCCGTATTTGCT (site CTCTACTCTAG),0.78

row,Sequence,recombinant UMI read abundance (log10)
1,CTCTACACATGGACCGGTTTTCCCGGTAATCCGTATTTGCT (site CTCTAGACTAG),0.0131
2,CTCTACACATGGACCGGTTTTCCCGGTAATCCGTATTTGCT (site CTCTATACTAG),0.00765
3,CTCTACACATGGACCGGTTTTCCCGGTAATCCGTATTTGCT (site CTCTCCACTAG),0
4,CTCTACACATGGACCGGTTTTCCCGGTAATCCGTATTTGCT (site CTCTGCACTAG),0.00734
5,CTCTACACATGGACCGGTTTTCCCGGTAATCCGTATTTGCT (site CTCTTCACTAG),0.548
6,CTCTACACATGGACCGGTTTTCCCGGTAATCCGTATTTGCT (site CTGTACACTAG),0.0999
7,CTCTACACATGGACCGGTTTTCCCGGTAATCCGTATTTGCT (site CTTTACACTAG),0.644
8,CTCTACACATGGACCGGTTTTCCCGGTAATCCGTATTTGCT (site GTCTACACTAG),0.232
9,CTCTACACATGGACCGGTTTTCCCGGTAATCCGTATTTGCT (site TTCTACACTAG),0.107
10,CTCTACACATGGACCGGTTTTCCCGGTAATCCGTATTTGTT (site CTCTACACTAA),0.93
11,CTCTACACATGGACCGGTTTTCCCGGTAATCCGTATTTGTT (site CTCTACACTAC),0.0026
12,CTCTACACATGGACCGGTTTTCCCGGTAATCCGTATTTGTT (site CTCTACACTAG),1.45
13,CTCTACACATGGACCGGTTTTCCCGGTAATCCGTATTTGTT (site CTCTACACTAT),0.616
14,CTCTACTCATGGACCGGTTTTCCCGGTAATCCGTATTTGCT (site CTCTACACTAG),0.869
15,CTCTACTCATGGACCGGTTTTCCCGGTAATCCGTATTTGCT (site CTCTACCCTAG),1.17
16,CTCTACTCATGGACCGGTTTTCCCGGTAATCCGTATTTGCT (site CTCTACGCTAG),0.00255
17,CTCTACTCATGGACCGGTTTTCCCGGTAATCCGTATTTGCT (site CTCTACTCTAG),2.5
18,CTCTAGCCATGGACCGGTTTTCCCGGTAATCCGTATTTGCC (site CACTAGCCTGG),0.69
19,CTCTAGCCATGGACCGGTTTTCCCGGTAATCCGTATTTGCC (site CCCTAGCCTGG),0
20,CTCTAGCCATGGACCGGTTTTCCCGGTAATCCGTATTTGCC (site CGCTAGCCTGG),0
21,CTCTAGCCATGGACCGGTTTTCCCGGTAATCCGTATTTGCC (site CTCTAGCCTGG),0
22,CTCTATACATGGACCGGTTTTCCCGGTAATCCGTATTTGAC (site ATCTATACTGT),0
23,CTCTATACATGGACCGGTTTTCCCGGTAATCCGTATTTGAC (site CTCTATACTGT),2.07
24,CTCTATACATGGACCGGTTTTCCCGGTAATCCGTATTTGAC (site GTCTATACTGT),0.00602
25,CTCTATACATGGACCGGTTTTCCCGGTAATCCGTATTTGAC (site TTCTATACTGT),0

row,Sequence,recombinant UMI read abundance (log10)
1,CTCTCATCATGGACCGGTTTTCCCGGTAATCCGTATTTGCT (site CGATCATCTAG),0
2,CTCTCATCATGGACCGGTTTTCCCGGTAATCCGTATTTGCT (site CTCTCATCTAG),2.05
3,CTCTCCACATGGACCGGTTTTCCCGGTAATCCGTATTTGTC (site CTCTCCACTGA),2.77
4,CTCTCGACATGGACCGGTTTTCCCGGTAATCCGTATTTGAC (site CTCTCGACTGT),1.34
5,CTCTGCCCATGGACCGGTTTTCCCGGTAATCCGTATTTGAT (site CTCTGCCCTAT),0.509
6,CTCTGGCCATGGACCGGTTTTCCCGGTAATCCGTATTTGCG (site CTCTGGCCTCG),0
7,CTCTTCTCATGGACCGGTTTTCCCGGTAATCCGTATTTGCT (site CTCTTCTCTAG),2.6
8,CTGAATTCATGGACCGGTTTTCCCGGTAATCCGTATTTGCC (site CTGAATTCTGG),1.06
9,CTGACATCATGGACCGGTTTTCCCGGTAATCCGTATTTGAG (site CTGACATCTCT),1.86
10,CTGACGACATGGACCGGTTTTCCCGGTAATCCGTATTTGCA (site CTGACGACTTG),1.71
11,CTGATACCATGGACCGGTTTTCCCGGTAATCCGTATTTGTA (site CTGATACCTTA),0.00514
12,CTGCAACCATGGACCGGTTTTCCCGGTAATCCGTATTTGCT (site CTGCAACCTAG),0.209
13,CTGCAACCATGGACCGGTTTTCCCGGTAATCCGTATTTGCT (site CTGCCACCTAG),0.0268
14,CTGCAACCATGGACCGGTTTTCCCGGTAATCCGTATTTGCT (site CTGCGACCTAG),0.00379
15,CTGCAACCATGGACCGGTTTTCCCGGTAATCCGTATTTGCT (site CTGCTACCTAG),0
16,CTGCATCCATGGACCGGTTTTCCCGGTAATCCGTATTTGTT (site CGGAATCCTAA),0.00365
17,CTGCATCCATGGACCGGTTTTCCCGGTAATCCGTATTTGTT (site CTGCATCCTAA),0.855
18,CTGCGACCATGGACCGGTTTTCCCGGTAATCCGTATTTGCT (site CTGCAACCTAG),0
19,CTGCGACCATGGACCGGTTTTCCCGGTAATCCGTATTTGCT (site CTGCCACCTAG),0.0046
20,CTGCGACCATGGACCGGTTTTCCCGGTAATCCGTATTTGCT (site CTGCGACCTAG),0
21,CTGCGACCATGGACCGGTTTTCCCGGTAATCCGTATTTGCT (site CTGCTACCTAG),0
22,CTGCGCTCATGGACCGGTTTTCCCGGTAATCCGTATTTGCG (site CTGCGCTCTCG),1.11
23,CTGCGTGCATGGACCGGTTTTCCCGGTAATCCGTATTTGTA (site CTGCGTGCTTA),2.28
24,CTGCTATCATGGACCGGTTTTCCCGGTAATCCGTATTTGAC (site CTAGTATCTGT),0
25,CTGCTATCATGGACCGGTTTTCCCGGTAATCCGTATTTGAC (site CTGCTATCTGT),1.26

# — the supplement of paper PMC11208160
